Broadly, the IC50 is the concentration at which inhibition is half-maximal.

Drawing on patent US11254686B1 (Corvus Pharmaceuticals, Inc., priority 2017, dated 2022), this text covers IC50 and Ratio for 23 compounds.

Holding throughout (format): biochemical
One assay deals with adenosine A2A receptor (Homo sapiens (Human), UniProt P29274). Kind of assay: Adenosine receptor activity assay (Table 1), A2A activity. The note with it: read-out: Ave A2A cAMP IC50.
A further assay concerns the target adenosine A2B receptor (Homo sapiens (Human), UniProt P29275). Kind of assay: Adenosine receptor activity assay (Table 1), A2B activity. The note with it: for IC50: read-out: Ave A2B cAMP IC50.
The target of the next assay is adenosine A3 receptor (Homo sapiens (Human), UniProt P0DMS8). Kind of assay: Adenosine receptor activity assay (Table 1), A3 cAMP. How it is done:
(§1) Table 1. Compounds (e.g., Adenosine Receptor modulators) and activity assay results. The legend is as follows: A=<10 nM; B=10-50 nM; C=50-100 nM; D=100-500; and E=>500 nM. The ratio corresponds to the A2A activity to the A2B activity; or A2A/A2B.

The target in another assay is adenosine A1 receptor (Homo sapiens (Human), UniProt P30542). Kind of assay: Adenosine receptor activity assay (Table 1), A1 cAMP. How it is done:
as §1

Setting [1] is: A2A activity to the A2B activity, A2A/A2B.

Chain of adenosine A2A receptor (P29274 whole entry): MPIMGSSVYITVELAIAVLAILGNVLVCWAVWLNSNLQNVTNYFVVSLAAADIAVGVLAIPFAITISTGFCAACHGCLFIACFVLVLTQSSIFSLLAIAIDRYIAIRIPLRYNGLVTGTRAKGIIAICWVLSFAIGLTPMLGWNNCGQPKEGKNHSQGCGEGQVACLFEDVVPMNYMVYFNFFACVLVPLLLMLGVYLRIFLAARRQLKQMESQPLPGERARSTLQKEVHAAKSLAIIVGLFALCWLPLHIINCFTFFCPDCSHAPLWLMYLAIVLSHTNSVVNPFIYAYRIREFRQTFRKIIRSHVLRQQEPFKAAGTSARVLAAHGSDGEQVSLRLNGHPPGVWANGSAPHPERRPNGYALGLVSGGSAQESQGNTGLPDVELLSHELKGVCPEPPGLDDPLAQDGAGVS
Chain of adenosine A2B receptor (P29275 whole entry): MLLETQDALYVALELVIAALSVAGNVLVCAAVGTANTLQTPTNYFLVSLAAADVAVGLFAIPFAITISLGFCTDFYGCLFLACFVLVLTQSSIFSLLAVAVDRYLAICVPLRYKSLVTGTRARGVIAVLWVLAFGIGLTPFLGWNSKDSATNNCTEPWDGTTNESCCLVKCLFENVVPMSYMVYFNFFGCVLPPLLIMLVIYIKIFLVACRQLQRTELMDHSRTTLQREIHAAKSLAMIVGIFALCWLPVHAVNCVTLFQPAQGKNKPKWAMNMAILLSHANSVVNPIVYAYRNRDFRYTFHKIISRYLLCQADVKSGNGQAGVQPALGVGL
Chain of adenosine A1 receptor (P30542 whole entry): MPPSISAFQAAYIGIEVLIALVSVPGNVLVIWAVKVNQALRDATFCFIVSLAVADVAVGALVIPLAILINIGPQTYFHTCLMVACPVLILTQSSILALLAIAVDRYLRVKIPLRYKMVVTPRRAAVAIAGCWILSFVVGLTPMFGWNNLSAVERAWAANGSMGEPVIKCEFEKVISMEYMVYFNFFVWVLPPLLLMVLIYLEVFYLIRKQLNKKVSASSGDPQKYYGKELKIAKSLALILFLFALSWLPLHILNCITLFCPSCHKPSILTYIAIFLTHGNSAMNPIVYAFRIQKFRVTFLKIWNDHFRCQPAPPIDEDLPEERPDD
Chain of adenosine A3 receptor (P0DMS8 whole entry): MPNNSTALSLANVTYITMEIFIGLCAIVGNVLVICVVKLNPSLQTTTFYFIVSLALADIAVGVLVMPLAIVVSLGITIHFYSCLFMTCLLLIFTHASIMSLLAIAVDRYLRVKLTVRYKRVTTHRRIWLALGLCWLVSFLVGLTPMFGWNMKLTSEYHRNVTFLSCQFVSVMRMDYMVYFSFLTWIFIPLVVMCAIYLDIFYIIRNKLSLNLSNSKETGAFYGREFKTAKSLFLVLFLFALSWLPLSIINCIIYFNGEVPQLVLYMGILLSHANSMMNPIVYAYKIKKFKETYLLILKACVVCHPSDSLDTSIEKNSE

For the compound `C[C@H](Nc1nc(C(=O)N[C@@H]2CC[C@H](O)C2)c2sccc2n1)c1cncc(F)c1` [Example Z402, 2-(((S)-1-(5-Fluoropyridin-3-yl)ethyl)amino)-N-((1R,3S)-3-hydroxycyclopentyl)thieno[3,2-d]pyrimidine-4-carboxamide], the IC50 is 50 to 100 nM at adenosine A2A receptor, below 10 nM at adenosine A2B receptor, 50 to 100 nM against adenosine A3 receptor and 100 to 500 nM at adenosine A1 receptor. Moreover, the Ratio on adenosine A2B receptor (setting [1]) is listed as 38.37.

For the compound `COC[C@@H](Nc1nc(C(=O)NCCc2ccc(O)cc2)c2sccc2n1)c1cccnc1` [Example Z403, (S)—N-(4-Hydroxyphenethyl)-2-((2-methoxy-1-(pyridin-3-yl)ethyl)amino)thieno[3,2-d]pyrimidine-4-carboxamide], the IC50 on adenosine A2A receptor is above 500 nM; at adenosine A2B receptor it was 10 to 50 nM; at adenosine A3 receptor it was above 500 nM; against adenosine A1 receptor, above 500 nM. Also, on adenosine A2B receptor (setting [1]), the Ratio is reported as 42.24.

As for `C[C@H](Nc1nc(C(=O)N2CC(CNC(=O)OC(C)(C)C)C2)c2sccc2n1)c1cncc(F)c1` [Example Z404, tert-Butyl (S)-((1-(2-((1-(5-fluoropyridin-3-yl)ethyl)amino)thieno[3,2-d]pyrimidine-4-carbonyl)azetidin-3-yl)methyl)carbamate], the IC50 on adenosine A2A receptor was 10 to 50 nM; at adenosine A2B receptor it was below 10 nM; against adenosine A3 receptor it was above 500 nM; at adenosine A1 receptor, above 500 nM. The Ratio on adenosine A2B receptor (setting [1]) is 5.80.

As to `C[C@H](Nc1nc(C(=O)NCCc2ccc(O)cc2)c2sccc2n1)c1ccnc(F)c1` [Example Z405, (S)-2-((1-(2-Fluoropyridin-4-yl)ethyl)amino)-N-(4-hydroxyphenethyl)thieno[3,2-d]pyrimidine-4-carboxamide], the concentration for half-maximal inhibition (IC50) on adenosine A2A receptor is 100 to 500 nM; on adenosine A2B receptor, below 10 nM; against adenosine A3 receptor it was above 500 nM; against adenosine A1 receptor it was above 500 nM. In addition, the Ratio on adenosine A2B receptor (setting [1]) was determined as 28.50.

Take `C[C@H](Nc1nc(C(=O)NCCc2cccc(O)c2)c2sccc2n1)c1cncc(F)c1` [Example Z409, (S)-2-((1-(5-Fluoropyridin-3-yl)ethyl)amino)-N-(3-hydroxyphenethyl)thieno[3,2-d]pyrimidine-4-carboxamide]: the IC50 on adenosine A2A receptor was 10 to 50 nM; on adenosine A2B receptor, below 10 nM; against adenosine A3 receptor, 50 to 100 nM; against adenosine A1 receptor it was 50 to 100 nM. Moreover, the Ratio at adenosine A2B receptor (setting [1]) is given as 5.96.

As to `C[C@H](Nc1nc(C(=O)NCCc2ccc(O)cc2)c2sccc2n1)c1ccccn1` [Example Z410, (S)—N-(4-Hydroxyphenethyl)-2-((1-(pyridin-2-yl)ethyl)amino)thieno[3,2-d]pyrimidine-4-carboxamide], the IC50 at adenosine A2A receptor is 100 to 500 nM; at adenosine A2B receptor it was below 10 nM; at adenosine A3 receptor, above 500 nM; at adenosine A1 receptor, above 500 nM. The Ratio on adenosine A2B receptor (setting [1]) turned out to be 69.41.

In the case of `COc1cccc(CCNC(=O)c2nc(N[C@@H](C)c3cncc(F)c3)nc3ccsc23)n1` [Example Z411, (S)-2-((1-(5-Fluoropyridin-3-yl)ethyl)amino)-N-(2-(6-methoxypyridin-2-yl)ethyl)thieno[3,2-d]pyrimidine-4-carboxamide], the half-maximal inhibitory concentration (IC50) at adenosine A2A receptor is 100 to 500 nM; on adenosine A2B receptor it was below 10 nM; against adenosine A3 receptor, above 500 nM; against adenosine A1 receptor, above 500 nM. Besides, the Ratio at adenosine A2B receptor (setting [1]) is reported as 19.23.

On to `CC(=O)Nc1ccc(CCNC(=O)c2nc(N[C@@H](C)c3cccnc3)nc3cc(C)sc23)cc1` [Example Z497, (S)—N-(4-Acetamidophenethyl)-6-methyl-2-((1-(pyridin-3-yl)ethyl)amino)thieno[3,2-d]pyrimidine-4-carboxamide], for which the IC50 on adenosine A2B receptor was in the range of 10 to 50 nM; against adenosine A3 receptor it was 50 to 100 nM.

As to `CC(C)C(=O)N1CCN(C(=O)c2nc(N[C@@H](C)c3cncc(F)c3)nc3ccsc23)C1` [Example Z564, (S)-1-(3-(2-((1-(5-Fluoropyridin-3-yl)ethyl)amino)thieno[3,2-d]pyrimidine-4-carbonyl)imidazolidin-1-yl)-2-methylpropan-1-one], the 50% inhibitory concentration (IC50) on adenosine A2A receptor is above 500 nM; at adenosine A2B receptor it was 100 to 500 nM. Moreover, on adenosine A2B receptor (setting [1]), the Ratio is listed as 18.15.

Consider `C[C@H](Nc1nc(C(=O)N2CCN(C(=O)C(C)(C)C)C2)c2sccc2n1)c1cncc(F)c1` [Example Z565, (S)-1-(3-(2-((1-(5-Fluoropyridin-3-yl)ethyl)amino)thieno[3,2-d]pyrimidine-4-carbonyl)imidazolidin-1-yl)-2,2-dimethylpropan-1-one], for which the half-inhibitory concentration (IC50) at adenosine A2A receptor and on adenosine A2B receptor was above 500 nM in each case. On adenosine A2B receptor (setting [1]), the Ratio is given as 6.39.

As for `C[C@H](Nc1nc(C(=O)N2CCN(C(=O)OCC(C)(C)C)C2)c2sccc2n1)c1cncc(F)c1` [Example Z566, Neopentyl (S)-3-(2-((1-(5-fluoropyridin-3-yl)ethyl)amino)thieno[3,2-d]pyrimidine-4-carbonyl)imidazolidine-1-carboxylate], the IC50 at adenosine A2A receptor and on adenosine A2B receptor was above 500 nM in each case. Also, the Ratio on adenosine A2B receptor (setting [1]) is 3.10.

Take `COC[C@@H]1CCN1C(=O)c1nc(N[C@@H](C)c2cncc(F)c2)nc2ccsc12` [Example Z567, (2-(((S)-1-(5-Fluoropyridin-3-yl)ethyl)amino)thieno[3,2-d]pyrimidin-4-yl)((S)-2-(methoxymethyl)azetidin-1-yl)methanone]: the results for the IC50 on adenosine A2A receptor and on adenosine A2B receptor were above 500 nM and 100 to 500 nM, respectively. The Ratio on adenosine A2B receptor (setting [1]) stood at 8.82.

As to `COC[C@H]1CCN1C(=O)c1nc(N[C@@H](C)c2cncc(F)c2)nc2ccsc12` [Example Z568, (2-(((S)-1-(5-Fluoropyridin-3-yl)ethyl)amino)thieno[3,2-d]pyrimidin-4-yl)((R)-2-(methoxymethyl)azetidin-1-yl)methanone], the figures for the IC50 on adenosine A2A receptor and at adenosine A2B receptor were above 500 nM and 50 to 100 nM, respectively. At adenosine A2B receptor (setting [1]), the Ratio is on record as 12.84.

Turning to `COC[C@@H]1CCN1C(=O)c1nc(N[C@@H](C)c2cncc(F)c2)nc2cc(C)sc12` [Example Z569, (2-(((S)-1-(5-Fluoropyridin-3-yl)ethyl)amino)-6-methylthieno[3,2-d]pyrimidin-4-yl)((S)-2-(methoxymethyl)azetidin-1-yl)methanone], the IC50 at adenosine A2A receptor was above 500 nM; at adenosine A2B receptor it was 100 to 500 nM. Besides, the Ratio on adenosine A2B receptor (setting [1]) is listed as 40.75.

In the case of `COC[C@H]1CCN1C(=O)c1nc(N[C@@H](C)c2cncc(F)c2)nc2cc(C)sc12` [Example Z570, (2-(((S)-1-(5-Fluoropyridin-3-yl)ethyl)amino)-6-methylthieno[3,2-d]pyrimidin-4-yl)((R)-2-(methoxymethyl)azetidin-1-yl)methanone], the IC50 on adenosine A2A receptor is above 500 nM; at adenosine A2B receptor it was 10 to 50 nM. Also, the Ratio at adenosine A2B receptor (setting [1]) is on record as 84.36.

On to `C[C@H](Nc1nc(C(=O)N2CC(C(=O)OC(C)(C)C)C2)c2sccc2n1)c1cncc(F)c1` [Example Z572, tert-Butyl (S)-1-(2-((1-(5-fluoropyridin-3-yl)ethyl)amino)thieno[3,2-d]pyrimidine-4-carbonyl)azetidine-3-carboxylate], for which the IC50 on adenosine A2A receptor was 100 to 500 nM; on adenosine A2B receptor, 10 to 50 nM. Further, the Ratio at adenosine A2B receptor (setting [1]) is 2.90.

Consider `CCNC1CN(C(=O)c2nc(N[C@@H](C)c3cncc(F)c3)nc3cc(C)sc23)C1` [Example Z574, (S)-(3-(Ethylamino)azetidin-1-yl)(2-((1-(5-fluoropyridin-3-yl)ethyl)amino)-6-methylthieno[3,2-d]pyrimidin-4-yl)methanone], for which the values for the half-inhibitory concentration (IC50) on adenosine A2A receptor and on adenosine A2B receptor were above 500 nM and 10 to 50 nM, respectively. Also, the Ratio at adenosine A2B receptor (setting [1]) stood at 58.55.

Take `C[C@H](Nc1nc(C(=O)N2CCN(C(=O)OC(C)(C)C)C2)c2sccc2n1)c1cncc(F)c1` [Example Z584, tert-Butyl (S)-3-(2-((1-(5-fluoropyridin-3-yl)ethyl)amino)thieno[3,2-d]pyrimidine-4-carbonyl)imidazolidine-1-carboxylate]: the figures for the IC50 on adenosine A2A receptor and on adenosine A2B receptor were above 500 nM and 100 to 500 nM, respectively. The Ratio at adenosine A2B receptor (setting [1]) was 2.34.

`CC(C)NC(=O)N1CCN(C(=O)c2nc(N[C@@H](C)c3cncc(F)c3)nc3ccsc23)C1` [Example Z587, (S)-3-(2-((1-(5-Fluoropyridin-3-yl)ethyl)amino)thieno[3,2-d]pyrimidine-4-carbonyl)-N-isopropylimidazolidine-1-carboxamide]: the 50% inhibitory concentration (IC50) at adenosine A2A receptor lay within 100 to 500 nM; at adenosine A2B receptor, 50 to 100 nM. Besides, on adenosine A2B receptor (setting [1]), the Ratio is 1.63.

Turning to `COCCC(=O)N1CCN(C(=O)c2nc(N[C@@H](C)c3cncc(F)c3)nc3ccsc23)C1` [Example Z589, (S)-1-(3-(2-((1-(5-Fluoropyridin-3-yl)ethyl)amino)thieno[3,2-d]pyrimidine-4-carbonyl)imidazolidin-1-yl)-3-methoxypropan-1-one], the results for the IC50 at adenosine A2A receptor and on adenosine A2B receptor were above 500 nM and 10 to 50 nM, respectively. In addition, the Ratio at adenosine A2B receptor (setting [1]) is on record as 17.96.

With `C[C@H](Nc1nc(C(=O)N2CCN(C(=O)N(C)C)C2)c2sccc2n1)c1cncc(F)c1` [Example Z590, (S)-3-(2-((1-(5-Fluoropyridin-3-yl)ethyl)amino)thieno[3,2-d]pyrimidine-4-carbonyl)-N,N-dimethylimidazolidine-1-carboxamide], the IC50 on adenosine A2A receptor fell in the range of 100 to 500 nM; on adenosine A2B receptor, 10 to 50 nM. Besides, the Ratio on adenosine A2B receptor (setting [1]) is listed as 11.22.

On to “(6-Amino-2-(((S)-1-(pyridin-2-yl)ethyl)amino)thieno[3,2-d]pyrimidin-4-yl)((R)-3-fluoropyrrolidin-1-yl)methanone [Example Z174]”, for which the values for the IC50 on adenosine A2A receptor and on adenosine A2B receptor were 100 to 500 nM and 10 to 50 nM, respectively. Moreover, the Ratio at adenosine A2B receptor (A2A activity to A2B activity (A2A/A2B)) was determined as 15.05.

“Azetidin-1-yl(2-(((6-methoxypyridin-3-yl)methyl)amino)thieno[3,2-d]pyrimidin-4-yl)methanone [Example Z433]”: the IC50 is 100 to 500 nM on adenosine A2A receptor and above 500 nM at adenosine A2B receptor. Further, the Ratio on adenosine A2B receptor (setting [1]) is 0.22.
